Test systems include RPMI-8226 leukemia; HOP-92 NSCLC; T-47D breast; OVCAR-5 ovarian; BT-549 breast; U251 CNS; NCI-H522 lung; UO-31 renal; HT29 colon; ACHN renal.
Common to all, as to experiment: inhibition of tumour cell growth, NCI panel, 48 h

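A five-concentration, 48-hour dose response in 96-well plates underlies each endpoint, interpolated linearly between surrounding concentrations. GI50 is the concentration that inhibits growth by half. TGI is the concentration that stops growth completely.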 Where only a bound is given, the exact number is not on record here.

In the case of `Cc1cc2ccccc2c[n+]1CC(O)C[n+]1cc2ccccc2cc1C`, the TGI with RPMI-8226 leukemia, with HOP-92 NSCLC, in the test on T-47D breast, in the test on OVCAR-5 ovarian, with BT-549 breast and in the test with U251 CNS was above 100 µM each time. Further, the TGI in the test with NCI-H522 lung, with UO-31 renal, with HT29 colon and in the test with ACHN renal was above 100 µM throughout.
As for `O=C(c1ccc2ccccc2c1)C1S(=O)(=O)OCCOS1(=O)=O`, the TGI with RPMI-8226 leukemia, in the test on OVCAR-5 ovarian, with BT-549 breast, with U251 CNS, with UO-31 renal and in the test with HT29 colon was above 100 µM each time. In the test on ACHN renal, this compound yielded a TGI above 100 µM.
As to `Cc1cc(C)c(S(=O)(=O)N(CCCCN)OCCCN)c(C)c1`, the TGI with RPMI-8226 leukemia stood at 26 µM; with HOP-92 NSCLC it was 34.5 µM; in the test with T-47D breast, 33.4 µM; in the test with OVCAR-5 ovarian, 35.6 µM; in the test with BT-549 breast, 33.8 µM; in the test with U251 CNS it was 28.8 µM. Further, the TGI with NCI-H522 lung was 29.9 µM; in the test with UO-31 renal, 31.8 µM; in the test with HT29 colon, 27.8 µM; in the test with ACHN renal, 37 µM.
Regarding `C/C(=C/CO[Si](C)(C)C(C)(C)C)C(=O)N(C)c1ccccc1I`, the TGI in the test on RPMI-8226 leukemia was 77.9 µM; in the test on HOP-92 NSCLC, 22.5 µM; in the test on T-47D breast it was 35.9 µM; with OVCAR-5 ovarian, 27.8 µM; with BT-549 breast, 35.8 µM; in the test with U251 CNS it was 28.6 µM. Further, the TGI came out at 31.5 µM in the test on NCI-H522 lung, 28 µM with UO-31 renal, 22.6 µM in the test on HT29 colon and 31 µM with ACHN renal.
In the case of `O=[N+]([O-])c1cccc([N+](=O)[O-])c1S(=O)(=O)c1ccccc1`, the TGI in the test on RPMI-8226 leukemia worked out at 3.68 µM; with HOP-92 NSCLC, 7.18 µM; with T-47D breast, 4.8 µM; in the test on OVCAR-5 ovarian, 9.18 µM; in the test with BT-549 breast, 13.6 µM; with U251 CNS it was 23 µM. In addition, the values for the TGI with UO-31 renal, with HT29 colon and in the test on ACHN renal were 3.5 µM, 36.2 µM and 3.92 µM, respectively.
Take `N#CCCC1C(C#N)C2CC1C1C3C=CC(C3)C21` (stereo unspecified): the TGI with RPMI-8226 leukemia, in the test with HOP-92 NSCLC, with T-47D breast, with OVCAR-5 ovarian, in the test with BT-549 breast and in the test with NCI-H522 lung was above 100 µM in each case. The TGI in the test on UO-31 renal, in the test on HT29 colon and with ACHN renal was above 100 µM throughout.
As for `CC(=O)NC1C(CO)O[C@@H]2OC(C)(C)O[C@H]12` (stereo partly specified), the TGI in the test with RPMI-8226 leukemia, in the test on HOP-92 NSCLC, with OVCAR-5 ovarian, in the test on BT-549 breast, in the test on U251 CNS and in the test on NCI-H522 lung was above 100 µM throughout. The TGI in the test with UO-31 renal, with HT29 colon and in the test with ACHN renal was above 100 µM in each case.
With `Nc1nc(Cl)cc(N=Nc2ccccc2)n1`, the TGI with RPMI-8226 leukemia is above 100 µM; in the test on HOP-92 NSCLC, 7.53 µM; with T-47D breast, above 100 µM; in the test with OVCAR-5 ovarian, above 100 µM; with BT-549 breast it was above 100 µM; in the test on NCI-H522 lung it was above 100 µM. The TGI is above 100 µM with UO-31 renal, above 100 µM in the test with HT29 colon and 97.2 µM in the test with ACHN renal.
As to `Clc1nc(-[n+]2ccc(-c3ccncc3)cc2)nc(Nc2ccccc2)c1Cl`, the TGI in the test with RPMI-8226 leukemia, with HOP-92 NSCLC, with T-47D breast, with OVCAR-5 ovarian, in the test on BT-549 breast and in the test on U251 CNS was above 100 µM throughout. Besides, the TGI in the test on UO-31 renal, with HT29 colon and in the test on ACHN renal was above 100 µM in each case.
Take `O=C(Nn1c(-c2ccccc2)nc2ccccc2c1=O)c1ccccn1`: the TGI with RPMI-8226 leukemia, in the test with HOP-92 NSCLC, with T-47D breast, with BT-549 breast, in the test with U251 CNS and in the test on NCI-H522 lung was above 100 µM in each case. The TGI in the test on UO-31 renal, in the test on HT29 colon and in the test with ACHN renal was above 100 µM in each case.
In the case of `COc1ccc(C2OC(=O)c3c2ccc2ccccc32)c(C)c1` (stereo unspecified), the TGI in the test with RPMI-8226 leukemia was 60.9 µM; in the test on HOP-92 NSCLC it was 80.1 µM; in the test with OVCAR-5 ovarian, above 100 µM; in the test with BT-549 breast it was 69.4 µM; in the test on U251 CNS, 20.2 µM; in the test on UO-31 renal it was above 100 µM. For the same compound, the TGI in the test with HT29 colon and in the test with ACHN renal was above 100 µM in each case.
Turning to `COC(=O)C1=C(O)C(C(=O)OC)[C@@]2(O)[C@@H](C(=O)OC)C(c3ccc(OC(=O)/C(=C/c4ccc(Cl)cc4)c4ccc(Cl)cc4)cc3)C[C@@H]1[C@@H]2C(=O)OC` (stereo partly specified), the TGI in the test with HOP-92 NSCLC, in the test with T-47D breast, in the test with OVCAR-5 ovarian, with BT-549 breast, in the test on U251 CNS and in the test on NCI-H522 lung was above 100 µM in each case. For the same compound, the TGI in the test with UO-31 renal was 34.1 µM; in the test on HT29 colon it was above 100 µM; with ACHN renal it was above 100 µM.
For the compound `O=C1c2[nH]cc(CN3CCNCC3)c2C(=O)c2c1c(O)c1ccccc1c2O`, the GI50 in the test with HOP-92 NSCLC was 3.05 µM; in the test on T-47D breast, 13.8 µM; in the test on OVCAR-5 ovarian, 1.86 µM; in the test on BT-549 breast, 4.86 µM; with NCI-H522 lung, 1.76 µM; in the test with UO-31 renal, 1.7 µM. Further, the GI50 was 2.44 µM in the test on HT29 colon and 1.57 µM in the test with ACHN renal. Further, the TGI with HOP-92 NSCLC stood at 13.1 µM; with T-47D breast, 34.4 µM; in the test with OVCAR-5 ovarian, 4.13 µM; with BT-549 breast, 20.3 µM; in the test on NCI-H522 lung, 3.65 µM; with UO-31 renal it was 5.96 µM. Moreover, the figures for the TGI in the test on HT29 colon and in the test on ACHN renal were above 100 µM and 3.37 µM, respectively.
Take `COc1cc2cc(C(=O)N3CC(CCl)c4c3cc(N)c3ccccc43)[nH]c2cc1OCCN(C)C` (stereo unspecified): the TGI in the test with RPMI-8226 leukemia is 0.408 µM; in the test with HOP-92 NSCLC, 0.01 µM; with T-47D breast, 0.0394 µM; in the test on OVCAR-5 ovarian, 16.3 µM; with BT-549 breast, 0.409 µM; in the test with UO-31 renal, below 0.005 µM. Also, the TGI in the test on HT29 colon was 5.17 µM.

For the origin of these results see PubChem BioAssay (NCI).
